Entries after “also recorded” stand apart in the source; their conditions may differ. Residues, ends and D or L forms follow the SMILES beside them. *: point of attachment. Cbz = O=C(OCc1ccccc1)*
How the values were obtained:
[1] = tested on: leukemia stem cells (LSCs) CD34+CD38low or negCD123+ from AML patient samples; test: High throughput functional drug screen (72-hour exposure, CellTiter Glo viability) on FACS sorted LSCs; format: cell-based, human; set-up: AUC Stem Mean: unit not given here; settings: for AUC Stem Mean: mean area under dose response curve across patient samples, 72-hour exposure, 8 concentrations; for Effectiveness vs. LSCs (AUCstem mean < mitomycin C AUCblast mean, p<0.1): aggregate viability data of patient samples, in vitro 72 h; for mean IC50 of LSC samples compared to predicted plasma concentration: FIG. 9, expected plasma concentration in patients with typical dosing; for LSC drug response in dose response curves: FIG. 1C
Protocol: (§1) Isolation of blasts and FACS isolation of LSCs: CD34+ blasts were enriched to >90% using immunomagnetic beads (QuadroMACS). Fluorescence activated cell sorting was performed in a biosafety cabinet enclosed FACS-Aria II (Becton-Dickinson; San Jose, Calif.) housed in the University of Washington Core Cell Analysis Facility where voltage was standardized and calibration was performed daily. Mononuclear cells were stained with allophycocyanin H7 (APC-H7) conjugated anti-human CD45, allophycocyanin (APC) conjugated anti-human CD34, phycoerythrin-Cy7 (PE-Cy7) conjugated anti-human CD38 and phycoerythrin (PE) conjugated anti-human CD123 (all from BD Biosciences Pharmingen, San Jose, Calif.). Initially a blast gate was applied for forward scatter vs. side scatter, then sequential gates for CD45 vs. side scatter, CD34+ and CD38^low or neg, then CD123+ cells to yield the LSCs. The CD38low population was defined by CD38 above the isotype control and below that of mature precursors. Flow cytometry data analysis was performed using FlowJo software (Tree Star, Inc. Ashland, Oreg.).
(§2) After overnight incubation on matrix protein coated 384 well plates, drugs were added to each well using a CyBio Well Vario liquid handler (Amalytik Jena). The cell populations were analyzed for survival after a 72-hour exposure to 8 customized drug concentrations (within the range of 5 pM to 100 microM) of each drug spanning 4 logs. Post exposure viability was measured using CellTiter Glo luminescent reagent (Promega, Madison, Wis.) per manufacturer protocol, then the plates were analyzed with the Envision Multi-label plate reader (Perkin Elmer, Waltham, Mass.). XLFit software (IDBS, Guildford, Surrey, United Kingdom) was used to analyze the data and generate dose response curves based on standard 4-parameter logistic fit. For each plate, data were normalized to DMSO 100% viability and blank controls.
(§3) Area under the curve (AUC) was calculated for each dose response curve. For the 4 patient samples, two-sample two-tailed t-tests were used for group comparisons of AUC values to determine drug specificity and efficacy.
(§4) Drug specificity was defined by group comparisons between AUCs for each drug and cell type across patient samples. […] Group comparisons for categorical variable were completed using Fisher's exact test.

[2] = tested on: AML blasts vs. leukemia stem cells (LSCs); test: Drug specificity: group comparison of AUCs, blasts vs. LSCs across patient samples; format: cell-based, human; settings: aggregate viability data of patient samples; pairwise p-value<0.1
Protocol: as §2, §3, §4

[3] = tested on: AML blasts (CD45dim, side scatter low) from patient samples; test: High throughput functional drug screen (72-hour exposure, CellTiter Glo viability) on AML blasts; format: cell-based, human; settings: for mean IC50 of blast samples compared to predicted plasma concentration: FIG. 9, expected plasma concentration in patients with typical dosing
Protocol: as §1
Functional Drug Screen: A CLIA-validated in vitro sensitivity assay was performed that included both FDA approved and investigational drugs. ‘Oncopane11’ comprised of 153 drugs was used for HTS of patient samples and an earlier generation panel of 160 drugs was used for HTS of the NOD/SCID IL2R γc−/− mouse engraftment sample. As detailed above, for the 4 patient samples, using FACS, the blast population (CD45^dim, side scatter^low) was confirmed to be >90% of the viable white blood cell fraction, and the LSC subpopulation (CD34^+CD38^low or negCD123^+) was isolated. For the NOD/SCID IL2R γc−/− mouse engraftment sample, both the pre-engraftment AML blasts (>90% blasts by FACs) and splenic mononuclear cells (91% hCD45+ engrafting subclone as above) were assayed. After overnight incubation on matrix protein coated 384 well plates, drugs were added to each well using a CyBio Well Vario liquid handler (Amalytik Jena). The cell populations were analyzed for survival after a 72-hour exposure to 8 customized drug concentrations (within the range of 5 pM to 100 microM) of each drug spanning 4 logs. Post exposure viability was measured using CellTiter Glo luminescent reagent (Promega, Madison, Wis.) per manufacturer protocol, then the plates were analyzed with the Envision Multi-label plate reader (Perkin Elmer, Waltham, Mass.). XLFit software (IDBS, Guildford, Surrey, United Kingdom) was used to analyze the data and generate dose response curves based on standard 4-parameter logistic fit. For each plate, data were normalized to DMSO 100% viability and blank controls.
as §3
Drug specificity was defined by group comparisons between AUCs for each drug and cell type across patient samples. For blast specific drugs AUCstem mean>AUCblast mean and for LSC specific drugs AUC^stem mean<AUC^blast mean (p<0.1). […] This approach was selected to detect differences within the small sample size, while still maintaining statistical stringency and capturing trends observed in the data set. Group comparisons for categorical variable were completed using Fisher's exact test.

LSCs = settings: literature; cited from earlier work
AML = settings: literature; cited from earlier work
pediatric AML blasts = settings: literature; cited from earlier work

| SMILES | AUC Stem Mean [1] | Effectiveness vs. LSCs (AUCstem mean < mitomycin C AUCblast mean, p<0.1) [1] | Drug specificity (blast specific: AUCstem mean>AUCblast mean; LSC specific: AUCstem mean<AUCblast mean) [2] | also measured |
| --- | --- | --- | --- | --- |
| CCN(CC)CCNC(=O)c1c(C)[nH]c(/C=C2\C(=O)Nc3ccc(F)cc32)c1C [Sunitinib] | 0.00039 |  |  |  |
| CC(C)C[C@@H](C=O)NC(=O)[C@H](CC(C)C)NC(=O)[C@H](CC(C)C)NC(=O)OCc1ccccc1 [MG-132] (Cbz-Leu-Leu-Leu-aldehyde) | 0.0039 |  |  |  |
| Nc1ccccc1NC(=O)c1ccc(CNc2nccc(-c3cccnc3)n2)cc1 [Mocetinostat] | 0.0029 | LSC effective |  |  |
| Nc1nc(Cl)nc2c1ncn2[C@H]1C[C@H](O)[C@@H](CO)O1 [Cladribine] |  |  | blast cell specific; also recorded: blast cell-specific | mean IC50 of blast samples compared to predicted plasma concentration [3]: less than predicted plasma concentration; mean IC50 of LSC samples compared to predicted plasma concentration [1]: greater than the predicted plasma concentration |
| Cc1ccc(C(=O)Nc2ccc(CN3CCN(C)CC3)c(C(F)(F)F)c2)cc1C#Cc1cnc2cccnn12 [Ponatinib] | 0.00085 |  |  |  |
| CCc1cnn2c(NCc3ccc[n+]([O-])c3)cc(N3CCCC[C@H]3CCO)nc12 [Dinaciclib] | 0.048 |  |  |  |
| C/C=C1\NC(=O)[C@H]2CSSCC/C=C/[C@H](CC(=O)N[C@H](C(C)C)C(=O)N2)OC(=O)[C@H](C(C)C)NC1=O [Romidepsin] | 0.00041 |  |  |  |
| CC1(COc2ccc3c(c2)ncn3-c2ccc3cccc(N4CCC(N)CC4)c3n2)COC1 [Crenolanib] | 0.0054 |  |  |  |
| CC(C)C[C@H](NC(=O)[C@H](CCc1ccccc1)NC(=O)CN1CCOCC1)C(=O)N[C@@H](Cc1ccccc1)C(=O)N[C@@H](CC(C)C)C(=O)[C@@]1(C)CO1 [Carfilzomib] |  | not effective |  | anti-LSC effect in vitro in prior studies (LSCs): reduced LSCs in vitro; clinical effect in AML patients (AML): minimal anti-leukemic effects |
| CC(C)C[C@H](NC(=O)[C@H](Cc1ccccc1)NC(=O)c1cnccn1)B(O)O [bortezomib] |  | ineffective |  |  |
| CO[C@H]1C(=O)[C@]2(C)[C@@H](OC)C[C@H]3OC[C@@]3(OC(C)=O)[C@H]2[C@H](OC(=O)c2ccccc2)[C@]2(O)C[C@H](OC(=O)[C@H](O)[C@@H](NC(=O)OC(C)(C)C)c3ccccc3)C(C)=C1C2(C)C [Cabazitaxel] | 0.0031 | effective |  | effect vs. pediatric AML blasts in vitro (pediatric AML blasts): effective |
| COc1cccc2c1C(=O)c1c(O)c3c(c(O)c1C2=O)C[C@@](O)(C(C)=O)C[C@@H]3O[C@H]1C[C@H](N)[C@H](O)[C@H](C)O1 [daunorubicin] |  |  | non-specific | mean IC50 of blast samples compared to predicted plasma concentration [3]: opposite pattern; LSC drug response in dose response curves ([1]; patient sample on the right): resistant; mean IC50 of LSC samples compared to predicted plasma concentration [1]: opposite pattern |
| CC(=O)[C@]1(O)Cc2c(O)c3c(c(O)c2[C@@H](O[C@H]2C[C@H](N)[C@H](O)[C@H](C)O2)C1)C(=O)c1ccccc1C3=O [Idarubicin] |  |  | blast cell specific; also recorded: blast cell-specific | mean IC50 of blast samples compared to predicted plasma concentration [3]: less than predicted plasma concentration; LSC drug response in dose response curves ([1]; patient sample on the left): resistant; mean IC50 of LSC samples compared to predicted plasma concentration [1]: greater than the predicted plasma concentration |
| Nc1ccn([C@@H]2O[C@H](CO)[C@@H](O)C2(F)F)c(=O)n1 [gemcitabine] |  |  |  | LSC drug response in dose response curves ([1]; patient sample on the left): sensitive |
| Nc1ncn([C@@H]2O[C@H](CO)[C@@H](O)[C@H]2O)c(=O)n1 [Azacitidine] |  | did not result in appreciable cytotoxicity | LSC specific; also recorded: LSC-specific |  |
| Nc1ccn([C@@H]2O[C@H](CO)[C@@H](O)[C@@H]2O)c(=O)n1 [Cytarabine] |  |  | blast cell specific; also recorded: blast cell-specific | mean IC50 of blast samples compared to predicted plasma concentration [3]: less than predicted plasma concentration; LSC drug response in dose response curves ([1]; patient sample on the left): resistant; LSC drug response in dose response curves ([1]; patient sample on the right): resistant; mean IC50 of LSC samples compared to predicted plasma concentration [1]: greater than the predicted plasma concentration |
| COc1cc([C@@H]2c3cc4c(cc3[C@@H](O[C@@H]3O[C@@H]5CO[C@@H](C)O[C@H]5[C@H](O)[C@H]3O)[C@H]3COC(=O)[C@H]23)OCO4)cc(OC)c1O [Etoposide] |  |  | blast cell specific; also recorded: blast cell-specific | mean IC50 of blast samples compared to predicted plasma concentration [3]: less than predicted plasma concentration; mean IC50 of LSC samples compared to predicted plasma concentration [1]: greater than the predicted plasma concentration |
| COCCn1c2c([n+](Cc3cnccn3)c1C)C(=O)c1ccccc1C2=O [YM-155] | 0.00089 | effective |  | LSC drug response in dose response curves ([1]; patient sample on the left): sensitive |
| CO[C@@]12[C@H](COC(N)=O)C3=C(C(=O)C(C)=C(N)C3=O)N1C[C@@H]1N[C@@H]12 [Mitomycin C] |  |  | blast cell specific | Blast response to mitomycin C in dose response curves ([3]; FIG. 3, both patient samples): sensitive; LSC response to mitomycin C in dose response curves ([1]; FIG. 3, both patient samples): resistant |
| O=C1c2c(O)ccc(O)c2C(=O)c2c(NCCNCCO)ccc(NCCNCCO)c21 [mitoxantrone] |  |  | trended towards blast cell specific; also recorded: trended towards blast cell-specific | mean IC50 of blast samples compared to predicted plasma concentration [3]: less than predicted plasma concentration; mean IC50 of LSC samples compared to predicted plasma concentration [1]: less than predicted plasma concentration |
| Nc1nc(Cl)nc2c1ncn2[C@@H]1O[C@H](CO)[C@@H](O)[C@@H]1F [clofarabine] |  |  | trended towards blast cell specific; also recorded: trended towards blast cell-specific | mean IC50 of blast samples compared to predicted plasma concentration [3]: less than predicted plasma concentration; mean IC50 of LSC samples compared to predicted plasma concentration [1]: greater than the predicted plasma concentration |
| CC(C)C[C@H](NC(=O)CNC(=O)c1cc(Cl)ccc1Cl)B(O)O [ixazomib] |  |  |  | anti-LSC effect in vitro in prior studies (LSCs): anti-LSC effect was shown in vitro |
| Cc1ccc([N+](=O)[O-])cc1S(=O)(=O)N(C)/N=C/c1cnc2ccc(Br)cn12 [PIK-75] | 0.0041 | effective |  |  |
| CNC(=O)c1cc(Oc2ccc(NC(=O)Nc3ccc(Cl)c(C(F)(F)F)c3)cc2)ccn1 [Sorafenib] | 0.0045 | effectively killed; also recorded: effective | LSC specific; also recorded: LSC-specific |  |
| CN1CCC(CNc2ccc3ncc(-c4cccc(OC(F)(F)F)c4)n3n2)CC1 [SGI-1776] | 0.00076 |  |  |  |
| Cc1csc(-c2nnc(Nc3ccc(Oc4ncccc4-c4ccnc(N)n4)cc3)c3ccccc23)c1 [AMG-900] |  |  |  | LSC drug response in dose response curves ([1]; patient sample on the right): sensitive |

— patent publication US20210285933A1, “HIGH THROUGHPUT DRUG SCREENING OF CANCER STEM CELLS” (UNIVERSITY OF WASHINGTON, priority 2018, published 2021)
